From patent US20200407717A1, “METHODS OF MODULATING ANTISENSE ACTIVITY” (Ionis Pharmaceuticals, Inc., priority 2018, published 2020) come the findings set out here.

The target in series [1] is EGFR (Homo sapiens, UniProt P00533). In words: Competitive NanoBRET binding assay. Also on record: made in house; host or cells: HEK293 cells. As to conditions: Competitive BRET vs 10 nM AF594-labeled 766636; Table 6. As for the experimental part:
NanoBRET (bioluminescence resonance energy transfer) binding assays were performed as described in Vickers and Crooke. PLOS One, 11(8), (2016). An EGFR NLuc construct was prepared by first amplifying human EGFR from the full length cDNA clone (Origene RC217223) with forward PCR primer 5′-[…]-3′ (SEQ ID NO: 1) and reverse PCR primer 5′-[…] (SEQ ID NO: 2). The amplified product was ligated into the NheI and XhoI sites of the NanoLuc expression vector pFC32K Nluc CMV-Neo (Promega). Protein was expressed in HEK293 cells and isolated using Protein G magnetic beads. For competitive BRET, the Alexafluor594-labeled modified oligonucleotide 766636 was diluted into water in opaque white 96-well plates at 10 nM and competed with 0.1-10,000 nM of unlabeled modified oligonucleotide. […] of 2× binding buffer containing […] (relative luminescence units) beads/well was added and plates were shaken for 10 minutes at room temperature. Nanoluciferase activity and BRET were measured in a Glowmax Discover plate reader and EC50 values, shown in the tables below, were calculated using GraphPad Prism. For direct BRET, Alexafluor594 modified nucleotides were diluted at 0.1-10,000 nM and experiments were performed as described above.

In series [2] the test system is EGFR. In words: Microscopy of EGF-induced internalization and recycling of EGFR. The class given is cell-based. The note with it: with EGF, 16 hours. The method, then:
Microscopy studies were also carried out to evaluate the EGF-induced internalization and recycling of EGFR in the presence of Cy3-labeled PS-ASO, compound no. 446654. Cells were treated with EGF alone or EGF and compound no. 446654 for 16 hours. The cells were then either immediately stained and imaged, or the EGF and, if applicable, compound no. 446654 were removed for two hours prior to staining and imaging. Staining and imaging were performed as described above. […] Two hours after removal of EGF, cells show EGFR staining primarily in the plasma membrane. […] Two hours after removal of EGF and/or compound no. 446654, the Cy3 signal remained diffuse throughout the cytoplasm, while EGFR staining primarily localized to the plasma membrane.

Another series deals with HEK cells. In words: Uptake by flow cytometry, HEK cells. The format is cell-based. As for the experimental part:
Uptake of compound no. 446654 by A431 cells was measured by flow cytometry. A431 cells were treated with a growth factor for 4 hours prior to incubation with compound no. 446654 for 2 hours. Results are presented in the tables below as relative fluorescence units (RFU) and represent an average of three independent experiments.
Uptake of compound no. 446654 was measured via flow cytometry, as in Example 8, in HEK cells overexpressing EGFR and wild type HEK cells.

e = 2'-O-(2-methoxyethyl) (MOE); d = 2'-deoxy (DNA)

Turning to “GGCATATGCAGATAATGTTC (sugars from the 5' end e5 d10 e5, all phosphorothioate, methylation of C not given here) [compound 395254]”, the EC50 in the series with EGFR [1] was 1.24 µM.
On the same count and under the same terms, then “AGGAAGGAAGCTGGCGATCT (sugars from the 5' end e5 d10 e5, all phosphorothioate, methylation of C not given here) [compound 25690]”, with 1.45 µM.
Regarding “Cy3-^mCesTesGes^mCesTesAdsGds^mCdsTds^mCdsTdsGdsGdsAdsTesTesTesGesAe (antisense CTGCTAGCCTCTGGATTTGA; listed as DNA, chemistry not fully specified) [compound 446654, Cy3-labeled PS-ASO]”, the “distribution of the ASO in cells” value in the series on EGFR [2] is recorded as “distributed throughout the cytoplasm”. Moreover, the RFU in the series on HEK cells (0.25 μM, Overexpressing EGFR) is on record as 123 RFU; with HEK cells (0.25 μM, Wild type HEK cells), 109 RFU; in the series on HEK cells (0.5 μM, Overexpressing EGFR), 163 RFU; in the series on HEK cells (0.5 μM, Wild type HEK cells), 143 RFU; in the series on HEK cells (1 μM, Overexpressing EGFR) it was 255 RFU; in the series on HEK cells (1 μM, Wild type HEK cells), 287 RFU. The “uptake, effect of varying EGFR expression levels” value in the series with HEK cells (HEK cells overexpressing EGFR vs wild type) is listed as “did not affect”.

What is called EC50 is the concentration needed to bring the measured effect to its halfway point. A higher EC50 goes with a less potent agent.
